From US20230203126A1, “A COMPOSITION COMPRISING S-ARRESTIN PEPTIDES” (WORG PHARMACEUTICALS (HANGZHOU) CO., LTD., priority 2019, published 2023)

How the values were obtained:
[1] = system: SAg-specific hybridoma cells with fresh or fixed APC (VAVY) cells, MHCII; test: Antigen processing independent presentation system (APIPS) assay; assay type: cell-based, DR3tg mice; conditions: 10 or 25 µg/ml peptide, IL-2 ELISA after 48 h
Protocol: FIG. 10: Variants of peptide 15N3K are apitopes. The ability of variants of the 15N3K peptide to behave as apitopes (i.e. bind to an MHCII molecule and be presented to a T cell by an antigen-presenting cell without undergoing antigen processing) was tested using an APIPS assay. DR3tg mice were immunised with SAg and hybridoma’s were generated. 5*10^4 SAg-specific hybridoma cells were cultured with 5*10^4 fresh or fixed commercial APC (VAVY) cells. Cultures were stimulated with 10 or 25 µg/ml of peptide, as indicated in the graph. T cell activation was measured by IL-2 ELISA on supernatants collected after 48 h. The graph represents the mean of duplicate measurements ± SEM.
Apitopes (Antigen Processing-Independent epiTOPES) are capable of binding to an MHCII molecule and stimulating a response from SAg-specific T cells without further antigen processing. Variants of peptide 15N3K (SEQ ID NO: 3) were tested for their ability to bind to an MHCII molecule and be presented to a T cell hybridoma without further antigen processing in an in vitro antigen processing independent presentation system (APIPS) assay. In other words, peptides consisting of parts of peptide 15N3K and peptides with various degrees of sequence identity with peptide 15N3K were tested for their ability to behave as apitopes.
All but three of the peptides are apitopes.
Antigen-specific hybridoma clones were tested for their reactivity to the peptides, presented by fixed or not fixed (fresh) cells (APCs). 5x10^4 cells were cultured with 10 µg/ml and 25 µg/ml peptide and 5x10^4 fixed or fresh APCs. To fix APCs, cells were incubated with 0.5% paraformaldehyde (Merck, Darmstadt, Germany) (pH7) for 5 min at room temperature (RT). The fixation reaction was stopped by adding 0.4 M glycine (Sigma-Aldrich) and washing the cells in RPMI-10% FCS. After 48 h, antigen-induced IL-2 production was measured by ELISA (R&D Systems, Abingdon, UK).

[2] = target: T1, HLA-DR3 (HLA-DRA and DRB1*0301) on CD11c+ dendritic cells of DR3tg mice (human, UniProt P01903 26-254; P79483 30-266); test: in vivo MHC class II loading assay, DR3tg mice, read out by IFNy of peptide-specific CD4+ T cells
T1 construct: whole, on cells; DR3tg mice express the HLA-DRB1*0301 molecule but not the mouse MHC-II molecule; also called MHC class II; MHC II molecules
T1 MHC II alpha: not shown
T1 MHC II beta: not shown
Protocol: (§1) FIG. 2: Peptide 17JK is correctly loaded on MHC class II in vivo. Response of peptide-specific CD4+ T cells towards peptide loaded in vivo on dendritic cells is shown. HLA-DR3-transgenic mice were injected subcutaneously with 100 µg of 17JK peptide. 2 h post injection, spleens were dissected and CD11c+ cells (dendritic cells) were isolated. These CD11c+ cells were co-cultured with peptide-specific CD4+ cells for 72 h at 37° C. IFNy was measured in the supernatant of these cultures to evaluate the response to peptide by the CD4+ T cells. (*** p<0.001 Mann-Whitney U-test)
as §1, with “FIG. 3:” for “FIG. 2:”, “Peptide 15N3K” for “Peptide 17JK”, “of 15N3K” for “of 17JK”, “peptide. 2h” for “peptide. 2 h”
DR3tg or DR2tg mice were injected with 100 µg of peptide in 100 µl PBS subcutaneously (s.c.) in the flank. Control animals received a s.c. injection of 100 µl PBS. After 2 hours, spleens were harvested and single-cell suspensions were prepared. […]

[3] = target: T2, HLA-DR2 (DRA*0101 and DRB1*1501) on CD11c+ dendritic cells of DR2tg mice (human, UniProt P01903 26-254; P01911 30-266); test: in vivo MHC class II loading assay, DR2tg mice, read out by IFNy of peptide-specific CD4+ T cells
T2 construct: whole, on cells; DR2tg mice express the HLA-DRB1*1501 molecule but not the mouse MHC class II molecule; also called MHC class II; MHC II molecules
Protocol: as §1, with “FIG. 1:” for “FIG. 2:”, “Peptide 9K1K” for “Peptide 17JK”, “shown. HLA-DR2-transgenic” for “shown. HLA-DR3-transgenic”, “of 9K1K” for “of 17JK”, “and CD11 c+” for “and CD11c+”, “cells. (* p<0.05” for “cells. (*** p<0.001”
DR3tg or DR2tg mice were injected with 100 µg of peptide in 100 µl PBS subcutaneously (s.c.) in the flank. Control animals received a s.c. injection of 100 µl PBS. After 2 hours, spleens were harvested and single-cell suspensions were prepared. CD11 c+ cells were positively selected using CD11c microbeads according to the manufacturer’s instructions (Miltenyi Biotec, Bergisch Gladbach, Germany). Average purities of >92% were reached. […] After 72 hours, supernatant of these co-cultures was collected and CD4+ T cell activation was analysed by IFNy ELISA (R&D Systems, Abingdon, UK). In a parallel experiment, CD4+ T cell responses towards peptide added in vitro were assessed to make sure the T cells recognize the peptides presented by the CD11 c+ cells.

Molecule: IFKKISRDKSVTIYLG (H-IFKKISRDKSVTIYLG-NH2) [HIP-15CD, variant of peptide 15N3K]
- Apitope [1]: Yes

Molecule: ISRDKSVTIYLG (H-ISRDKSVTIYLG-NH2) [HIP-15G3, variant of peptide 15N3K]
- Apitope [1]: No

Molecule: KKISRDKSVTIYLG (H-KKISRDKSVTIYLG-NH2) [HIP-15E1, variant of peptide 15N3K]
- Apitope [1]: Yes

Molecule: KKKIFKKISRDKSVTIYLGKKK (H-KKKIFKKISRDKSVTIYLGKKK-NH2) [HIP-15CD-KKK, variant of peptide 15N3K]
- Apitope [1]: Yes

Molecule: KKKISRDKSVTIYLGKKK (H-KKKISRDKSVTIYLGKKK-NH2) [HIP-15G3-KKK, variant of peptide 15N3K]
- Apitope [1]: Yes

Molecule: KKKKKISRDKSVTIYLGKKK (H-KKKKKISRDKSVTIYLGKKK-NH2) [HIP-15E1-KKK, variant of peptide 15N3K]
- Apitope [1]: Yes

Molecule: KKKVIFKKISRDKSVKKK (H-KKKVIFKKISRDKSVKKK-NH2) [HIP-15B3-KKK, variant of peptide 15N3K]
- Apitope [1]: No

Molecule: KKKVIFKKISRDKSVTIKKK (H-KKKVIFKKISRDKSVTIKKK-NH2) [HIP-15B1-KKK, variant of peptide 15N3K]
- Apitope [1]: Yes

Molecule: KKKVIFKKISRDKSVTIYLKKK (H-KKKVIFKKISRDKSVTIYLKKK-NH2) [HIP-15BC-KKK, variant of peptide 15N3K]
- Apitope [1]: Yes

Molecule: MAASGKTSKSEPNHVIFKKISRDKSV TIYLGNRDYIDHVSQV (H-MAASGKTSKSEPNHVIFKKISRDKSVTIYLGNRDYIDHVSQV-NH2) [HIP-115, variant of peptide 15N3K]
- Apitope [1]: Yes

Molecule: VIFKKISRDKSV (H-VIFKKISRDKSV-NH2) [HIP-15B3, variant of peptide 15N3K]
- Apitope [1]: No

Molecule: VIFKKISRDKSVTI (H-VIFKKISRDKSVTI-NH2) [HIP-15B1, variant of peptide 15N3K]
- Apitope [1]: Yes

Molecule: VIFKKISRDKSVTIYL (H-VIFKKISRDKSVTIYL-NH2) [HIP-15BC, variant of peptide 15N3K]
- Apitope [1]: Yes

B1: 17JK (peptide)
peptide: H-KKKLTFRRDLYFSRVQVYKKK-NH2
notes: Synthetic S-Ag derived peptide with KKK added at both ends
- binding result [2]: binds

B2: 9K1K (peptide)
peptide: H-KKKAFVEQVANVVLKKK-NH2
notes: Synthetic S-Ag (S-arrestin) derived peptide with KKK added at both ends
- binding result [3]: binds

B3: 15N3K (peptide)
peptide: H-KKKVIFKKISRDKSVTIYLGKKK-NH2
notes: as for B1
- binding result [2]: binds
